Measurements reported in patent US10961215B2, “N-aryl and N-heteroaryl piperidine derivatives as liver X receptor beta agonists, compositions, and their use” (Merck Sharp & Dohme Corp., priority 2016, dated 2021).
pEC50: −log10 of the molar value.

What was measured:
[1] = target: T1, GST tagged LXRbeta LBD (ligand binding domain) (Homo sapiens, UniProt P55055); assay: LanthaScreen TR-FRET Liver X Receptor Coactivator Assay, LXR beta-LBD (co-activator recruitment; IP and % Emax relative to T0901317); format: biochemical; conditions: for pEC50: Inflection Point of co-activator recruitment, LXR beta-LBD, TR-FRET; for Emax: read-out: LXR beta actiivty at max dose (%)
T1 construct: purchased Invitrogen pv4658.pps
T1 sequence (P55055 222-460 limits assumed): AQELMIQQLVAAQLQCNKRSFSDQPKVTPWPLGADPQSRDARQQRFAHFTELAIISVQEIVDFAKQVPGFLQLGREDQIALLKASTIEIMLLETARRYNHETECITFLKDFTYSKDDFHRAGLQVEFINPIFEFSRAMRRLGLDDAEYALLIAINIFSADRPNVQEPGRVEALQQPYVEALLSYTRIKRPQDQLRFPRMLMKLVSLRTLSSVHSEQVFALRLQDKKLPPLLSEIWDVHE
Summary of the method: (§1)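 Readout is time-resolved FRET between a terbium anti-GST antibody bound to the tagged LBD and a fluorescein-labelled coactivator peptide recruited on ligand binding. Samples are incubated at room temperature before reading, and efficacy is expressed against T0901317.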

[2] = target: T2, GST tagged LXRalpha LBD (ligand binding domain) (Homo sapiens, UniProt Q13133); assay: LanthaScreen TR-FRET Liver X Receptor Coactivator Assay, LXR alpha-LBD (co-activator recruitment; IP and % Emax relative to T0901317); format: biochemical; conditions: for LXR alpha IP (nM) / pEC50: Inflection Point of co-activator recruitment, LXR alpha-LBD, TR-FRET; for Emax: read-out: LXR alpha actiivty at max dose (%)
T2 construct: purchased Invitrogen pv4655
T2 sequence (Q13133 209-447 limits assumed): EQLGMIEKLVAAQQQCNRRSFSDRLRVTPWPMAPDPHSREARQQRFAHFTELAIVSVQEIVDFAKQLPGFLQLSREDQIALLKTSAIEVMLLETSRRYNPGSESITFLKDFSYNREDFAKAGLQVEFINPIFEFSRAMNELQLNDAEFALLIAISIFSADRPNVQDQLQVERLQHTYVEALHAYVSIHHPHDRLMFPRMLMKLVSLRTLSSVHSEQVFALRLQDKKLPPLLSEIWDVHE
Summary of the method: as §1

[3] = efficacy at max dose in relation to reference T0901317, LXR beta-LBD
[4] = efficacy at max dose in relation to reference T0901317, LXR alpha-LBD

Row | SMILES | pEC50 [1] | Emax [1, 3] [%] | LXR alpha IP (nM) [2] | Emax [2, 4] [%] | pEC50 [2] | LXR beta actiivty at max dose (%) [1, 3] [%] | LXR alpha actiivty at max dose (%) [2, 4] [%]
1 | COc1cccc([C@]2(C(=O)N(C)CCCC3CCN(c4ccc(C(=O)N(C)C)c(Cl)n4)CC3)CCCO2)c1 [Example 1-46, (S)-2-chloro-6-(4-(3-(2-(3-methoxyphenyl)-N-methyltetrahydrofuran-2-carboxamido)propyl)piperidin-1-yl)-N,N-dimethylnicotinamide] | 6.39 | 37 | No IP | 0 | – | – | –
2 | CN(C)C(=O)c1ccc(N2CCC(CCCN(C)C(=O)[C@]3(c4cccc(Cl)c4)CCCO3)CC2)nc1Cl [Example 1-62, (R)-2-chloro-6-(4-(3-(2-(3-chlorophenyl)-N-methyltetrahydrofuran-2-carboxamido)propyl)piperidin-1-yl)-N,N-dimethylnicotinamide] | 6.16 | 28 | No IP | 0 | – | – | –
3 | CN(C)C(=O)c1ccc(N2CCC(CCCN(C)C(=O)[C@@](N)(c3ccccc3)C(F)(F)F)CC2)nc1Cl [Example 1-30, (S)-6-(4-(3-(2-amino-3,3,3-trifluoro-N-methyl-2-phenylpropanamido)propyl)piperidin-1-yl)-2-chloro-N,N-dimethylnicotinamide] | 6.63 | 47 | No IP | 1 | – | – | –
4 | CN(C)C(=O)c1ccc(N2CCC(CCCN(C)C(=O)[C@@](C)(O)c3ccccc3)CC2)nc1Cl [Example 1-21, (S)-2-chloro-6-(4-(3-(2-hydroxy-N-methyl-2-phenylpropanamido)propyl)piperidin-1-yl)-N,N-dimethylnicotinamide] | 6.48 | 60 | No IP | 9 | – | – | –
5 | CN(C)C(=O)c1ccc(N2CCC(CCCN(C)C(=O)[C@](N)(c3ccccc3)C(F)(F)F)CC2)nc1Cl [Example 1-29, (R)-6-(4-(3-(2-amino-3,3,3-trifluoro-N-methyl-2-phenylpropanamido)propyl)piperidin-1-yl)-2-chloro-N,N-dimethylnicotinamide] | 6.40 | 51 | No IP | 8 | – | – | –
6 | CN[C@@](C(=O)N(C)CCCC1CCN(c2ccc(C(=O)N(C)C)c(Cl)n2)CC1)(c1cccc(OC)c1)C(F)(F)F [Example 1-57, (R)-2-chloro-N,N-dimethyl-6-(4-(3-(3,3,3-trifluoro-2-(3-methoxyphenyl)-N-methyl-2-(methylamino)propanamido)propyl)piperidin-1-yl)nicotinamide] | 6.57 | 48 | No IP | 0 | – | – | –

Now from value to compound:

Row | pEC50 [1] | Emax [1, 3] [%] | LXR alpha IP (nM) [2] | Emax [2, 4] [%] | pEC50 [2] | LXR beta actiivty at max dose (%) [1, 3] [%] | LXR alpha actiivty at max dose (%) [2, 4] [%] | SMILES
7 | 6.21 | 40 | No IP | 5 | – | – | – | CC(C)N(C)C(=O)c1ccc(N2CCC3(CC2)C[C@H]3CCN(C)C(=O)[C@](O)(c2ccccc2)C(F)(F)F)cc1Cl [Example 7-29, 2-chloro-N-isopropyl-N-methyl-4-((S)-1-(2-((R)-3,3,3-trifluoro-2-hydroxy-N-methyl-2-phenylpropanamido)ethyl)-6-azaspiro[2.5]octan-6-yl)benzamide]
8 | 6.98 | 104 | – | 28 | 5.29 | – | – | CN(C)C(=O)c1ccc(N2CCC(CCCNC(=O)[C@](O)(c3ccccc3)C(F)(F)F)CC2)nc1Cl [Example 5-8, (R)-2-chloro-N,N-dimethyl-6-(4-(3-(3,3,3-trifluoro-2-hydroxy-2-phenylpropanamido)propyl)piperidin-1-yl) nicotinamide]
9 | 6.71 | 60 | No IP | 11 | – | – | – | COc1cccc([C@@](O)(C(=O)N(C)CCCC2CCN(c3ccc(C(=O)N4CC(N)C4)c(Cl)n3)CC2)C(F)(F)F)c1 [Example 2-13, (R)-N-(3-(1-(5-(3-aminoazetidine-1-carbonyl)-6-chloropyridin-2-yl)piperidin-4-yl)propyl)-3,3,3-trifluoro-2-hydroxy-2-(3-methoxyphenyl)-N-methylpropanamide]
10 | 7.92 | 59 | – | 36 | 6.80 | – | – | COc1cccc([C@@](O)(C(=O)N(C)CC[C@H]2CC23CCN(c2ccc(C(=O)N(C)C(C)C)c(Cl)n2)CC3)C(F)(F)F)c1 [Example 7-17, 2-chloro-N-isopropyl-N-methyl-6-((R)-1-(2-((R)-3,3,3-trifluoro-2-hydroxy-2-(3-methoxyphenyl)-N-methylpropanamido)ethyl)-6-azaspiro[2.5]octan-6-yl)nicotinamide]
11 | 7.28 | 81 | No IP | 0 | – | – | – | COc1cccc([C@@](O)(C(=O)N(C)CC(C)CC2CCN(c3ccc(C(=O)N(C)C)c(Cl)n3)CC2)C(F)(F)F)c1 (single isomer, unassigned) [Example 3-2]
12 | 6.66 | 49 | No IP | 0 | – | – | – | CCOc1cccc([C@@](O)(C(=O)N(C)CCCC2CCN(c3ccc(C(=O)N(C)C)c(Cl)c3)CC2)C(F)(F)F)c1 [Example 4-2, (R)-2-chloro-4-(4-(3-(2-(3-ethoxyphenyl)-3,3,3-trifluoro-2-hydroxy-N-methylpropanamido)propyl)piperidin-1-yl)-N,N-dimethylbenzamide]
13 | 6.33 | 46 | – | 22 | 5.51 | – | – | CN(C)C(=O)c1ccc(N2CCC3(CC2)C[C@H]3CCN(C)C(=O)[C@](O)(c2ccccc2)C(F)(F)F)cc1Cl [Example 7-25, 2-chloro-N,N-dimethyl-4-((S)-1-(2-((R)-3,3,3-trifluoro-2-hydroxy-N-methyl-2-phenylpropanamido)ethyl)-6-azaspiro[2.5]octan-6-yl)benzamide]
14 | 6.58 | 44 | No IP | 12 | – | – | – | CN(C)C(=O)c1ccc(N2CCC(F)(CCCN(C)C(=O)[C@](O)(c3ccccc3)C(F)(F)F)CC2)cc1Cl [Example 12-1, (R)-2-chloro-4-(4-fluoro-4-(3-(3,3,3-trifluoro-2-hydroxy-N-methyl-2-phenylpropanamido)propyl)piperidin-1-yl)-N,N-dimethylbenzamide]
15 | 6.58 | 46 | No IP | 0 | – | – | – | CN(C)C(=O)c1ccc(N2CCC(F)(CCCN(C)C(=O)[C@](O)(c3ccccc3)C(F)(F)F)CC2)nc1Cl [Example 12-4, (R)-2-chloro-6-(4-fluoro-4-(3-(3,3,3-trifluoro-2-hydroxy-N-methyl-2-phenylpropanamido)propyl)piperidin-1-yl)-N,N-dimethylnicotinamide]
16 | 7.11 | – | – | – | 6.17 | 73 | 15 | CN(C)C(=O)c1ccc(N2CCC(CCCN(C)C(=O)C(O)(c3ccccc3)C(F)(F)F)CC2)cc1Cl (single isomer, unassigned) [Example 4-6, 2-chloro-N,N-dimethyl-4-(4-(3-(3,3,3-trifluoro-2-hydroxy-N-methyl-2-phenylpropanamido)propyl)piperidin-1-yl)benzamide]
17 | 5.95 | 32 | No IP | 2 | – | – | – | COc1cccc([C@@](O)(C(=O)N(C)CCCC2CCN(c3ncc(C(=O)N(C)C)cc3Cl)CC2)C(F)(F)F)c1 [Example 2-22, (R)-5-chloro-N,N-dimethyl-6-(4-(3-(3,3,3-trifluoro-2-hydroxy-2-(3-methoxyphenyl)-N-methylpropanamido)propyl)piperidin-1-yl)nicotinamide]
18 | 6.37 | 94 | No IP | 13 | – | – | – | COc1cccc([C@@](O)(C(=O)NC[C@H](F)CC2CCN(c3ccc(C(=O)N(C)C)c(Cl)n3)CC2)C(F)(F)F)c1 [Example 3-7, 2-chloro-6-(4-((R)-2-fluoro-3-((R)-3,3,3-trifluoro-2-hydroxy-2-(3-methoxy-phenyl)propanamido)propyl)piperidin-1-yl)-N,N-dimethylnicotinamide]
19 | 6.67 | 83 | – | 22 | 5.56 | – | – | CN(C)C(=O)c1ccc(N2CCC(CCCNC(=O)C3(c4ccccc4)CCCC3)CC2)nc1Cl [Example 5-15, 2-chloro-N,N-dimethyl-6-(4-(3-(1-phenylcyclopentane-carboxamido)propyl)piperidin-1-yl)nicotinamide]
20 | 6.90 | 72 | No IP | 0 | – | – | – | CN(C)C(=O)c1ccc(N2CCC([C@@H]3C[C@H]3CN(C)C(=O)[C@](O)(c3ccccc3)C(F)(F)F)CC2)cc1Cl [Example 15-19, 2-chloro-N,N-dimethyl-4-(4-((1S,2R)-2-(((R)-3,3,3-trifluoro-2-hydroxy-N-methyl-2-phenylpropanamido)methyl)cyclopropyl)piperidin-1-yl)benzamide]
